In one experiment the target is mouse Axl (Mus musculus, UniProt Q00993). In words: Binding to mouse Axl.
The test system of experiment [1] is MDA-MB-231 cells. The experiment in a line: HMGB1 secretion in vitro (ELISA). The class given is cell-based, human. The conditions noted are these: 48 hrs; ADC 2 μg/mL, MMAE 10 or 50 nM, paclitaxel 1 μM. The protocol:
(§1) MDA-MB-231 or LCLC-103H cells were seeded in quadruplicate at 125,000 cells per well (MDA-MB-231) or 25,000 cells/well (LCLC-103H) in 24-well plates and grown 3-4 hrs at 37° C. Subsequently, IgG1-AXL-107-vcMMAE (2 μg/mL), free monomethyl auristatin E (MMAE; 10 or 50 nM), paclitaxel (1 μM), or isotype control ADC (IgG1-b12-vcMMAE; 2 μg/mL) were added to the wells and plates were incubated for 48 hrs at 37° C. After incubation cells were pelleted at 1000 rpm for 3 min at RT and supernatants were transferred to a new 96-wells plate. HMGB1 was measured in the supernatant using a HMGB1-specific ELISA kit (IBL, Cat.no ST51011) according to manufacturer's instructions.

In experiment [2] the test system is LCLC-103H cells. In words: HMGB1 secretion in vitro (ELISA). The experiment is classed as cell-based, human. The conditions noted are these: 48 hrs; ADC 2 μg/mL, MMAE 10 or 50 nM, paclitaxel 1 μM. The protocol: as §1
A further experiment has as its system LXFA 526. The conditions noted are these: 4 mg/kg i.v.; Boshuizen et al, Nature Med 2018; cited from earlier work.
Experiment [3] concerns MDA-MB-231 cells. In words: Calreticulin surface expression in vitro (flow cytometry). The class given is cell-based, human. The conditions noted are these: 72 h. The protocol:
(§2) LCLC-103H or MDA-MB-231 cells were grown to 70% to 80% confluence in 6-well plates, washed with serum-free medium and incubated with IgG1-AXL-107-vcMMAE (2 μg/mL), free monomethyl auristatin E (MMAE, SAFC, cat.no SG10; 10 or 50 nM), paclitaxel (1 μM), or isotype control ADC (IgG1-b12-vcMMAE; 2 μg/mL) in serum-free medium (RPMI1640, Lonza BE17-603E) for 48 hours (LCLC-103H) or 72 hours (MDA-MB-231). After incubation, supernatant and cells were collected and washed in PBS/0.1% BSA/0.02% azide (FACS buffer). Cells were then incubated with a phycoerythrin (PE)-conjugated mouse anti-human calreticulin antibody (Enzo, Cat no. ADI-SPA-601PE-D, lot. 10021835) for 30 min at 4° C. in the dark. A PE-conjugated mouse isotype control antibody (Enzo, cat no. ADI-SAB-600PE-D, lot. 08071817) was included as a control. After washing with FACS buffer, cells were analyzed with flow cytometry in the presence of DAPI (BD; cat no. 564907, lot. 8012653) or TO-PRO-3 (Thermo Fisher, cat no. T3605, lot. 1976612). Calreticulin expression was determined as PE positive cells and the percentage of calreticulin positive cells over isotype control was obtained on DAPI or TO-PRO-3 negative cells.

Experiment [4] has as its system LCLC-103H cells. The experiment is described as above. The experiment is classed as cell-based, human. The conditions noted are these: 48 h. As to the method: as §2
Experiment [5] relates to MDA-MB-231 cells. The experiment in a line: Extracellular ATP release in vitro (CellTiterGlo). The experiment is classed as cell-based, human. The settings on record: 48 hr, hypotonic conditions (70% PBS); ADCs 2 μg/mL, MMAE 50 nM, paclitaxel 1 μM. The protocol: (§3) LCLC-103H or MDA-MB-231 cells were seeded in quadruplicate at 25,000 cells per well for LCLC-103H cells or 125,000 cells per well for MDA-MB-231 cells in 24-well plates and grown 3 hours at 37° C. Subsequently, IgG1-AXL-107-vcMMAE (2 μg/mL), free monomethyl auristatin E (MMAE; 10 or 50 nM), paclitaxel (1 μM), or isotype control ADC (IgG1-b12-vcMMAE; 2 μg/mL) were added per well.
(§4) Plates were incubated for 48 hr at 37° C. and after incubation each well was washed with 200 μL PBS. After the final wash, PBS was replaced with 200 μL fresh 100% PBS or 70% PBS (hypotonic) for the indicated times, harvested and transferred to a 96-well plate, and then spun at 1000 rpm for 2 min at RT. Supernatants were transferred to a new 96-well (optiwhite) plate and ATP was measured using CellTiterGlo Luminescent Cell Viability Assay (Promega, Cat.no G7570) according to manufacturer's instructions. All steps were performed with ice-cold PBS and in the dark.

The test system of experiment [6] is LCLC-103H cells. The experiment in a line: Extracellular ATP release in vitro (CellTiterGlo). The class given is cell-based, human. The settings on record: 48 hr, 100% PBS; ADC 2 μg/mL, paclitaxel 1 μM, MMAE 10 or 50 nM. The protocol: as §3, §4
The mark [7] stands for this setting: ADCs 2 μg/mL, MMAE 10 or 50 nM, paclitaxel 1 μM.
Setting [8] is: compared to untreated or isotype control ADC.

Sequence of mouse Axl (Q00993 19-888): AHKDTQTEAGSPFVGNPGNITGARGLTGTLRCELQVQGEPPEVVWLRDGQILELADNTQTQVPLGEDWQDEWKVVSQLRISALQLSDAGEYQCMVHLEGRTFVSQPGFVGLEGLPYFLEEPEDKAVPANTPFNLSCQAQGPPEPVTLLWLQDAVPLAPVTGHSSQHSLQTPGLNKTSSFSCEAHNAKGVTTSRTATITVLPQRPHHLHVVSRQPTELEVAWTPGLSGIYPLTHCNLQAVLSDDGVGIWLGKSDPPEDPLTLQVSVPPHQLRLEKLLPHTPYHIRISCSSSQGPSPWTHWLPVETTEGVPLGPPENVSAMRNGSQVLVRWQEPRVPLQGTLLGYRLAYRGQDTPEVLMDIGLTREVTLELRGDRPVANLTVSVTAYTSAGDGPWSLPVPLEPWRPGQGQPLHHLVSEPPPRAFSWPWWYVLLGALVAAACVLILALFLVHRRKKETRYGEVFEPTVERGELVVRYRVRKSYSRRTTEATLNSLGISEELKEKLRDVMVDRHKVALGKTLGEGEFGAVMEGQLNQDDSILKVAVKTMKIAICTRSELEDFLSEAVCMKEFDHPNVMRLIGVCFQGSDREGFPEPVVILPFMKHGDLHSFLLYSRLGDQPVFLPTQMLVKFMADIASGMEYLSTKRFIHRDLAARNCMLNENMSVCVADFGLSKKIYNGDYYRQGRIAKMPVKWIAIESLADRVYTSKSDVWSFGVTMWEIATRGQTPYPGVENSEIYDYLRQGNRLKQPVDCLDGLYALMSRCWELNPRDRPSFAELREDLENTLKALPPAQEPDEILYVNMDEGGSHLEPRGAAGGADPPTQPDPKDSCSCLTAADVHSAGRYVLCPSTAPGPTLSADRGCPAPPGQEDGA

With “IgG1-AXL-107-vcMMAE: anti-human AXL IgG1-kappa antibody conjugated, on an average of 4 cysteinyl, to MMAE via cleavable mc-val-cit-PABC linker”, the “binding to mouse Axl” value in the experiment with mouse Axl is reported as “does not bind”. The “HMGB1 secretion compared to untreated cells” value is reported as “about 1.6 fold” with MDA-MB-231 cells [1] and “about 7.5 fold” in the experiment on LCLC-103H cells [2]. In addition, in the experiment on LXFA 526, the “anti-tumor activity / tumor growth” value was “strong anti-tumor activity”. Also, the “cell surface expression of calreticulin (MFI) compared to untreated cells” value in the experiment on MDA-MB-231 cells [3] (setting [7]) is “about 3.5 fold”; in the experiment on LCLC-103H cells [4] (setting [7]) it was “about 1.4 fold”. Moreover, the “percentage of calreticulin positive cells” value with MDA-MB-231 cells [3] (setting [8]) and in the experiment with LCLC-103H cells [4] (setting [8]) was “increased” throughout. The figures for the “ATP release compared to untreated cells” value with MDA-MB-231 cells [5] and with LCLC-103H cells [6] were roughly 7 fold and “about 3 fold”, respectively.
